Values joined by “and” are separate entries in the source; they are usually repeats but may differ in a detail not shown here. Equal values may be shown once. Toxic doses and inconclusive results are not listed.
Tested on: L1210 leukemia ip in BDF1 mice, survival T/C
Assay: NCI In Vivo Anticancer Drug Screen. Data for tumor model L1210 Leukemia (intraperitoneal) in B6D2F1 (BDF1) mice
Details: endpoint: mean survival time, higher = longer survival
Outline: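 Value reflects the ratio of survival in compound-treated mice to survival in vehicle-treated controls, with both groups carrying the same transplanted tumor.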

[1] = dose: 50.0 mg/kg/injection, schedule: Q01DX009 (ip), vehicle: Klucel (hydroxypropylcellulose) (HPC)
[2] = dose: 100.0 mg/kg/injection, schedule: Q01DX009 (ip), vehicle: Klucel (hydroxypropylcellulose) (HPC)
[3] = dose: 100.0 mg/kg/injection, schedule: Q01DX009 (ip), vehicle: saline with Tween-80
[4] = dose: 100.0 mg/kg/injection, schedule: Q04DX003 (ip), vehicle: saline with Tween-80
[5] = dose: 200.0 mg/kg/injection, schedule: Q01DX009 (ip), vehicle: saline with Tween-80
[6] = dose: 200.0 mg/kg/injection, schedule: Q04DX003 (ip), vehicle: saline with Tween-80
[7] = dose: 400.0 mg/kg/injection, schedule: Q01DX009 (ip), vehicle: saline with Tween-80
[8] = dose: 400.0 mg/kg/injection, schedule: Q04DX003 (ip), vehicle: saline with Tween-80
[9] = dose: 200.0 mg/kg/injection, schedule: Q01DX009 (ip), vehicle: Klucel (hydroxypropylcellulose) (HPC)
[10] = dose: 400.0 mg/kg/injection, schedule: Q01DX009 (ip), vehicle: Klucel (hydroxypropylcellulose) (HPC)

NC(CSC(c1ccccc1)(c1ccccc1)c1ccc(C(=O)O)cc1)C(=O)O (stereo unspecified)
T/C (dose: 12.5 mg/kg/injection, schedule: Q01DX009 (ip), vehicle: water): 106 % of control
T/C (dose: 25.0 mg/kg/injection, schedule: Q01DX009 (ip), vehicle: water): 102 % of control and 103 % of control
T/C (dose: 50.0 mg/kg/injection, schedule: Q01DX009 (ip), vehicle: water): 103 % of control and 100 % of control
T/C (dose: 100.0 mg/kg/injection, schedule: Q01DX009 (ip), vehicle: water): 101 % of control and 108 % of control
T/C (dose: 200.0 mg/kg/injection, schedule: Q01DX009 (ip), vehicle: water): 102 % of control
T/C (dose: 400.0 mg/kg/injection, schedule: Q01DX009 (ip), vehicle: water): 97 % of control and 102 % of control

COc1ccccc1C[N+](C)(C)C
T/C (dose: 20.0 mg/kg/injection, schedule: Q01DX001 (ip), vehicle: saline): 95 % of control
T/C (dose: 20.0 mg/kg/injection, schedule: Q01DX009 (ip), vehicle: saline): 108 % of control
T/C (dose: 40.0 mg/kg/injection, schedule: Q01DX001 (ip), vehicle: saline): 97 % of control
T/C (dose: 40.0 mg/kg/injection, schedule: Q01DX009 (ip), vehicle: saline): 108 % of control
T/C (dose: 80.0 mg/kg/injection, schedule: Q01DX001 (ip), vehicle: saline): 102 % of control

CN(C)C(=O)CCCCC(=O)N(C)C
T/C (dose: 100.0 mg/kg/injection, schedule: Q04DX002 (ip), vehicle: saline): 94 % of control
T/C (dose: 200.0 mg/kg/injection, schedule: Q04DX002 (ip), vehicle: saline): 86 % of control
T/C (dose: 400.0 mg/kg/injection, schedule: Q04DX002 (ip), vehicle: saline): 105 % of control

Nc1c(F)c(F)c(N)c(F)c1F
T/C (dose: 100.0 mg/kg/injection, schedule: Q01DX001 (ip), vehicle: acetone): 93 % of control
T/C (dose: 400.0 mg/kg/injection, schedule: Q01DX001 (ip), vehicle: acetone): 89 % of control

CC(C)C1CCC(N)CC1 (stereo unspecified)
T/C (dose: 75.0 mg/kg/injection, schedule: Q01DX001 (ip), vehicle: saline): 100 % of control

O=C(O)/C=C\Br
T/C (dose: 25.0 mg/kg/injection, schedule: Q01DX009 (ip), vehicle: Klucel (hydroxypropylcellulose) (HPC)): 91 % of control
T/C (dose: 50.0 mg/kg/injection, schedule: Q01DX005 (ip), vehicle: Klucel (hydroxypropylcellulose) (HPC)): 95 % of control
T/C [1]: 106 % of control
T/C (dose: 100.0 mg/kg/injection, schedule: Q01DX005 (ip), vehicle: Klucel (hydroxypropylcellulose) (HPC)): 103 % of control
T/C [2]: 98 % of control

COc1cc(/C=N/NC(=O)c2ccncc2)cc(OC)c1OC
T/C [3]: 112 % of control
T/C [4]: 111 % of control
T/C [5]: 101 % of control
T/C [6]: 118 % of control
T/C [7]: 98 % of control
T/C [8]: 100 % of control

CSc1ccc(NC(=O)Oc2cc(C)ccc2C(C)C)cc1
T/C [1]: 94 % of control
T/C [2]: 100 % of control and 88 % of control
T/C [9]: 89 % of control
T/C [10]: 91 % of control

O=C(CCCCC(=O)N=C(c1ccccc1)c1ccccc1)N=C(c1ccccc1)c1ccccc1
T/C (dose: 222.0 mg/kg/injection, schedule: Q01DX Z (ip), vehicle: methylcellulose (MC)): 93 % of control
T/C (dose: 333.0 mg/kg/injection, schedule: Q01DX Z (ip), vehicle: methylcellulose (MC)): 98 % of control
T/C (dose: 500.0 mg/kg/injection, schedule: Q01DX Z (ip), vehicle: methylcellulose (MC)): 97 % of control

Nc1ccc(Cl)cc1-c1nc2ccccc2[nH]1
T/C [4]: 91 % of control
T/C [6]: 95 % of control
T/C [8]: 91 % of control

Cc1cccc(C(=O)OCc2ccccc2CN2CCCCC2C)c1 (stereo unspecified)
T/C (dose: 100.0 mg/kg/injection, schedule: Q01DX001 (ip), vehicle: Klucel (hydroxypropylcellulose) (HPC)): 93 % of control
T/C (dose: 200.0 mg/kg/injection, schedule: Q01DX001 (ip), vehicle: Klucel (hydroxypropylcellulose) (HPC)): 93 % of control

Cc1cc(C)c(-c2cc(C(O)C3OC4OC(C)(C)OC4C4OC(C)(C)OC34)on2)c(C)c1 (stereo unspecified)
T/C (dose: 100.0 mg/kg/injection, schedule: Q04DX002 (ip), vehicle: saline with Tween-80): 97 % of control
T/C (dose: 200.0 mg/kg/injection, schedule: Q04DX002 (ip), vehicle: saline with Tween-80): 87 % of control
T/C (dose: 400.0 mg/kg/injection, schedule: Q04DX002 (ip), vehicle: saline with Tween-80): 87 % of control

CC(Br)C(=O)Nc1ccccc1 (stereo unspecified)
T/C [3]: 93 % of control
T/C [4]: 101 % of control
T/C [5]: 103 % of control
T/C [6]: 95 % of control
T/C [7]: 90 % of control
T/C [8]: 95 % of control

Clc1ccc(/C=N/Nc2nc3ccccc3s2)c(Cl)c1
T/C [4]: 93 % of control
T/C (dose: 111.0 mg/kg/injection, schedule: Q01DX Z (ip), vehicle: methylcellulose (MC)): 105 % of control
T/C (dose: 166.0 mg/kg/injection, schedule: Q01DX Z (ip), vehicle: methylcellulose (MC)): 98 % of control
T/C [6]: 93 % of control
T/C (dose: 250.0 mg/kg/injection, schedule: Q01DX Z (ip), vehicle: methylcellulose (MC)): 103 % of control
T/C [8]: 93 % of control

Nc1ncns1
T/C (dose: 66.0 mg/kg/injection, schedule: Q04DX003 (ip), vehicle: saline): 104 % of control
T/C (dose: 100.0 mg/kg/injection, schedule: Q04DX003 (ip), vehicle: saline): 117 % of control
T/C (dose: 150.0 mg/kg/injection, schedule: Q04DX003 (ip), vehicle: saline): 120 % of control

CCCCCCCCCCCCC[As](=O)(O)CCCCCCCCCCCCC
T/C (dose: 50.0 mg/kg/injection, schedule: Q01DX001 (ip), vehicle: saline): 95 % of control
T/C (dose: 100.0 mg/kg/injection, schedule: Q01DX001 (ip), vehicle: saline): 103 % of control
T/C (dose: 200.0 mg/kg/injection, schedule: Q01DX001 (ip), vehicle: saline): 101 % of control
T/C (dose: 400.0 mg/kg/injection, schedule: Q01DX001 (ip), vehicle: saline): 91 % of control

CC(=O)OC(Cc1nc2ccccc2s1)(C(F)(F)F)C(F)(F)F
T/C (dose: 3.13 mg/kg/injection, schedule: Q04DX002 (ip), vehicle: saline with Tween-80): 97 % of control
T/C (dose: 6.25 mg/kg/injection, schedule: Q04DX002 (ip), vehicle: saline with Tween-80): 91 % of control
T/C (dose: 12.5 mg/kg/injection, schedule: Q04DX002 (ip), vehicle: saline with Tween-80): 97 % of control
T/C (dose: 25.0 mg/kg/injection, schedule: Q04DX002 (ip), vehicle: saline with Tween-80): 94 % of control

CS(=O)(=O)Nc1ccc(Nc2c3ccccc3nc3cc(Cl)ccc23)cc1
T/C (dose: 10.0 mg/kg/injection, schedule: Q01DX009 (sc), vehicle: saline): 118 % of control
T/C (dose: 20.0 mg/kg/injection, schedule: Q01DX009 (sc), vehicle: saline): 113 % of control
T/C (dose: 133.0 mg/kg/injection, schedule: Q04DX003 (ip), vehicle: saline with Tween-80): 176 % of control
T/C [6]: 103 % of control
T/C (dose: 300.0 mg/kg/injection, schedule: Q04DX003 (ip), vehicle: saline with Tween-80): 113 % of control

COC(=O)c1ccccc1NC(=O)c1ccco1
T/C [2]: 97 % of control
T/C [9]: 96 % of control
T/C [10]: 91 % of control

CCCCC(=O)N1CC(C)OC(C)C1 (stereo unspecified)
T/C (dose: 100.0 mg/kg/injection, schedule: Q01DX001 (ip), vehicle: carboxymethylcellulose (CMC)): 97 % of control
T/C (dose: 100.0 mg/kg/injection, schedule: Q01DX009 (ip), vehicle: carboxymethylcellulose (CMC)): 96 % of control
T/C (dose: 100.0 mg/kg/injection, schedule: Q04DX002 (ip), vehicle: carboxymethylcellulose (CMC)): 102 % of control
T/C (dose: 100.0 mg/kg/injection, schedule: Q04DX003 (ip), vehicle: carboxymethylcellulose (CMC)): 102 % of control
T/C (dose: 200.0 mg/kg/injection, schedule: Q01DX001 (ip), vehicle: carboxymethylcellulose (CMC)): 102 % of control
T/C (dose: 200.0 mg/kg/injection, schedule: Q01DX009 (ip), vehicle: carboxymethylcellulose (CMC)): 94 % of control and 104 % of control
T/C (dose: 200.0 mg/kg/injection, schedule: Q04DX002 (ip), vehicle: carboxymethylcellulose (CMC)): 98 % of control
T/C (dose: 200.0 mg/kg/injection, schedule: Q04DX003 (ip), vehicle: carboxymethylcellulose (CMC)): 102 % of control
T/C (dose: 400.0 mg/kg/injection, schedule: Q01DX001 (ip), vehicle: carboxymethylcellulose (CMC)): 106 % of control
T/C (dose: 400.0 mg/kg/injection, schedule: Q01DX009 (ip), vehicle: carboxymethylcellulose (CMC)): 94 % of control and 98 % of control
T/C (dose: 400.0 mg/kg/injection, schedule: Q04DX002 (ip), vehicle: carboxymethylcellulose (CMC)): 105 % of control
T/C (dose: 400.0 mg/kg/injection, schedule: Q04DX003 (ip), vehicle: carboxymethylcellulose (CMC)): 96 % of control
